Test results from patent publication US5367062A, “Disubstituted and deoxydisubstituted derivatives of α-d-lyxofuranosides having anti-inflammatory and anti-proliferative activity” (Medicarb Inc., priority 1992, dated 1994).
Counter-ions that a name gives are not always drawn.

Legend:
BUD-8 human fibroblast = assay: BUD-8 human cell line fibroblast proliferation assay; format: cell-based; details: 72 h, estimated, BUD-8 cells, 3 days, MTT
Description: ii BUD-8 human cell line fibroblast proliferation assay.
(§1) The MLR assay measures the effects of a study compound on the activation and antigen presentation of T-lymphocytes, therefore determining immunomodulatory properties. The mouse spleen cell mitogen-induced blastogenesis and the BUD-8 human fibroblast proliferation assays measure the effects of the compounds of the present invention on cellular proliferation of cells involved in the pathogenesis of autoimmune diseases. These two assays are appropriate as screens to ascertain anti-inflammatory and/or autoimmune diseases.
The skin cell fibroblast line, BUD-8, was originally derived from the normal skin of a person and can now be obtained from the American Type Culture Collection, Rockville, Md. The concentration of the compounds which were used in this assay were: 1, 10, 30, 100, and 300 μM. The vehicle was used as the negative control. Test compounds were prepared in DMSO at a stock concentration of […]. Appropriate dilutions were made in culture medium.
In this assay BUD-8 cells were collected, counted, and diluted to 2×10^4 cells/ml. 0.1 ml was plated per well to give 2×10^3 cells/well. The compounds of the present invention were diluted in culture medium to the appropriate concentrations. Aliquotes of 100 μl were distributed to triplicate wells. Control wells with vehicle and wells with media were also run. After a three day incubation at 37° C. with 5% carbon dioxide, proliferation was measured by adding 20 μl of MTT (10 mg/ml in PBS) (3-[4,5-dimethyl thiazol-2-yl]-2,5diphenyl-tetrazolium bromide) to each well. Plates were incubated for 4 hours at 37° C., after which 180 μl of 10% SDS in PBS were added. After an overnight incubation, the optical density (OD) of each well was read using a Molecular Devices microplate reader at 570-650 nm.
(§2) Duplicate cultures were also set up to measure viability. After 3 days of incubation, supernatants were assayed for lactate dehydrogenase (LDH) activity to determine the viability of the cells, which is an indication of the toxicity of the test article on the BUD-8 cells. 0.1 ml of supernatent was mixed with 0.1 ml of the LDH substrate mixture which contains 5.4×10^-2 M L(+) lactate, 6.6×10^-4 M 2-p-iodophenyl-3-p-nitrophenyl tetrazolium chloride, 2.8×10^-4 M phenazine methosulfate, 1.3×10^-3 M AND, and 0.2 M Tris buffer. PH 8.2. Plates were read immediately for 5 minutes at 490 nm using a Molecular Devices microplate reader.
The mean for each test article treated group was determined and compared to the mean of the control group. The percent change from the control was calculated, and the IC50 estimated. The criteria used to establish activity levels were:
Sixteen (16) test articles were assayed for their ability to inhibit fibroblast proliferation. The test article were added to BUD-8 cell cultures to give final concentrations of 1, 10, 30, 100, and 300 μM. The proliferation observed in the test article treated wells were compared to the DMSO control wells.

[1] = tested on: T cells (BALB/CBYJ responder spleen cells with C57BL/6J stimulator spleen cells); assay: Mixed lymphocyte response (MLR); format: cell-based; details: Mus musculus, T-cell, 120 h; estimated; 5 days incubation; MTT
Description: i Mixed lymphocyte response (MLR).
as §1
The MLR is a classical assay used to measure T cell function by studying the proliferation response of T cells which are activated in vitro by genetically disparate stimulator cells. This is accomplished by co-culturing spleen cells from two different strains of mice. Splenic T cell proliferation occurs as a result of cellular activation signals generated by the ongoing cellular interactions.
In performing MLR assays, BALB/CBYJ mice were euthanized by cervical dislocation and their spleens removed. Single cell suspensions were prepared in culture medium (RPMI-1640 with hepes supplemented with 10% calf serum, 2 mM glutamine, 500 units penicillin/streptomycin and 4×10^-5 M 2-mercaptoethanol) using a Teflon pestle. The cells were centrifuged at 1500 RPM and the pellets resuspended in ACT (0.15 M Tris, 0.14 M ammonium chloride, pH 7.2 ) in order to lyse the red blood cells. After a 5 minutes incubation at 37° C. waterbath, the cells were washed and resuspended in culture medium. The splenic lymphocytes were counted. C57BL/6J spleen cells, which were used as stimulator cells, were prepared in the same way. The stimulator cells were treated with 50 μm/ml of mitomycin C for 20 minutes at 37° C., then washed five times in culture medium. The proliferative response were measured by culturing 5×10^5 responder spleen cells with 5×10^5 stimulator cells in 96-well microtiter plates in the presence or absence of test article or vehicle (DMSO). Syngeneic control cultures using mitomycin C treated normal BALB/C spleen cells as the stimulator cells were also run. All cultures were run in triplicate.
Solutions of compounds of the present invention in DMSO were prepared at a stock concentration of 300 mM. Solutions were made in a culture medium to a concentration of 1, 10, 30, 100, and 300 μM. The vehicle DMSO was used as a negative control.
After incubation for 5 days at 37° C. with 5% carbon dioxide, the amount of cell proliferation was measured by adding 20 μl of MTT (10 mg/ml in PBS) (3-[4,5-dimethylthiazol-2-yl]-2,5-diphenyltetrazolium bromide) to each well. plates were incubated for 4 hours at 37° C., after which 180 μl of supernatant was removed and 180 μl of 10% SDS in PBS was added. After an overnight incubation, the optical density (OD) of each well was read on a Molecular Devices microplate reader at 570-650 nm.
The results were determined by calculating the difference between the means of the allogeneic cultures and the means of the syngeneic cultures for each test compound concentration. Differences of the test article groups were compared to the difference of the control group. The percent change from the control was determined and an IC50 estimated. The criteria used to establish activity levels were:
Sixteen (16) novel compounds were assayed for their ability to modulate a Mixed Lymphocyte Response in vitro. The test compounds were added to MLR cultures to give final concentrations of 1, 10, 30, 100, and 300 μm. The responses observed in the test article treated wells were compared to the control wells. […] Based on the estimated IC50 all the test compounds were strong inhibitors of the MLR.

[2] = tested on: various tumor cell lines, derived from seven cancer types; assay: Tumor cell line screens (leukemia, melanoma, lung, colon, renal, ovarian, brain cancer); format: cell-based; details: average over tumor cell lines; read-out: GI (Average GI50) (converted)
Procedure: The compounds of the present invention were also tested against various tumor cell lines, derived from seven cancer types. These include leukemia, melanoma, lung cancer, colon cancer, renal cancer, ovarian cancer, and brain cancer. Most of the compounds have shown significant activity in various screens, particularly against colon cancer and melanoma.

mouse spleen cells = assay: Concanavalin A assay (mouse spleen cell mitogen induced blastogenesis); format: cell-based; details: 72 h, estimated, Con-A 1.25 μg/ml, 3 days, MTT
Description: iii Concanavalin A assay (the mouse spleen cell mitogen induced blastogenesis).
as §1
It is known that the induction and maintenance of most inflammatory diseases are typically due to the unrestricted activity of T-lymphocytes. Therefore, it is advantageous to identify compounds which are modulators of T-lymphocyte activity for eventual use in the regulation of inflammatory diseases, including acquired immune deficiency syndrome, psoriasis, systemic lupus, erythromatosus, and rheumatoid arthritis.
A simple method is used to screen compounds for their ability to modulate T-lymphocyte activity which comprises assessing the capacity of the compounds to alter the activation of murine spleen cells in response to T-lymphocyte mitogen activators, such as Conconavalin-A (Con-A). The method used to measure the effects of the compounds of the present invention on the blastogenic response of spleen cells to the T-lymphocyte mitogen (Con-A) is as follows:
The response of a mouse spleen cells to the T cell mitogen ConA is a classical assay. In this assay, mice were euthanized by cervical dislocation and their spleens removed surgically. A single cell suspension of the spleens was prepared in culture medium (RPMI-1640 with hepes, supplemented with 10% calf serum, 2 mM glutamine, 500 units penicillin/streptomycin, and 4×10^-5 M 2-mercaptoethanol) using a Teflon pestle. The cells were centrifuged at 1500 RPM and the pellets resuspended in ACT (0.15 M Tris, 0.14 M Ammonium chloride, pH 7.2) in order to lyse the red blood cells. After a five minutes incubation in 37° C. waterbath, the cells were washed and resuspended in culture medium. The splenic lymphocytes were counted using an electronic Coulter Counter and diluted to 5.0×10^6 cells/mi.
The test articles were diluted in culture medium to the appropriate concentrations. Aliquots 100 μl were distributed to triplicate wells in a 96-well microtiter plate. 50 μl of lymphocytes (2.5×10^5 cells) were added to each well. Control wells with vehicle and wells with media were also run. Plates were incubated for one hour at 37° C. 50 μl of Con-A (5 μl/ml) were then added to the wells to result in a final concentration of 1.25 μg/ml. After incubation at 37° C. with 5% carbon dioxide for 3 days, proliferation was measured by adding 20 μl of MTT (10 mg/mlin PBS) [3-(4,5-dimethyl-thiazol-2-yl)-2,5-diphenyltetrazoliumbromidel to each well. Plates were incubated for 4 hours at 37° C., after which 180 μl of 10% SDS in PBS were added. After an overnight incubation, the optical density (OD) of each well was read using a Molecular Devices microplate reader at 570-650 nm.
as §2, with “cultures without Con-A” for “cultures”, “up.” for “up to measure viability.”, “dehydrogenase” for “dehydrogenase (LDH)”, “splenic lymphocytes.” for “BUD-8 cells.”, “supernatant” for “supernatent”, “buffer, pH” for “buffer. PH”
The mean for each test article treated group was determined and compared to the mean of the control group. The percent change from the control was calculated, and the IC50 was estimated. […]

rheumatoid arthritis = details: cited from earlier work

SMILES	GI50 [2]	IC50 (BUD-8 human fibroblast)	IC50 [1]	IC50 (mouse spleen cells)	Anti-inflammatory activity (in words) (rheumatoid arthritis; in vivo)	Utility in managing the signs and symptoms of rheumatoid arthritis (in words) (rheumatoid arthritis; late Phase III clinical trials)
CCCCCCCCCOCCCO[C@H]1O[C@H](CNCCCN2CCCC2)[C@@H]2OC(C)(C)O[C@H]12 [XXIV, n-Nonyloxypropyl 5-deoxy-2,3-0-(1-methylethylidene)-5-aminopropylpyrrolidinyl-α-D-lyxofuranoside]		16 µM	0.85 µM	2.5 µM		
CN(C)CCCO[C@@H]1[C@H]2OC(C)(C)O[C@H]2O[C@@H]1[C@H](O)CO [Amiprilose. HCl, 1,2-0-isopropylidene-3-0-3'-(N',N'-dimethylaminopropyl)-α-D-glucofuranose]					known to have anti-inflammatory activity	demonstrated utility in managing the signs and symptoms of rheumatoid arthritis
CCCCCCCCCOCCCO[C@H]1O[C@H](CN2CCCC2)[C@@H]2OC(C)(C)O[C@H]12 [XVI]	5.13 µM	58 µM	< 1 µM	3.5 µM		
CCCCCCCCCOCCCO[C@H]1O[C@H](COCCN2CCCCC2)[C@@H]2OC(C)(C)O[C@H]12 [VI, n-Nonyloxypropyl 2,3-0-(1-methlethylidene)-5-0-N'-ethylpiperidinyl-α-D-lyxofuranoside]		> 100 µM	0.5 µM	2.7 µM		

Further lines, with some results ahead:

GI50 [2]	SMILES	IC50 (BUD-8 human fibroblast)	IC50 [1]	IC50 (mouse spleen cells)	Anti-inflammatory activity (in words) (rheumatoid arthritis; in vivo)	Utility in managing the signs and symptoms of rheumatoid arthritis (in words) (rheumatoid arthritis; late Phase III clinical trials)
32.4 µM	CCCCCCCCCNC[C@H]1O[C@H](OCCCc2ccccc2)[C@H]2OC(C)(C)O[C@H]21 [XXIX, Phenylpropyl 5-deoxy-2,3-0-(1-methylethylidene)-5-aminononyl-α-D-lyxofuranoside]	20 µM	1.5 µM	5 µM		
91.2 µM	CN(C)CCCOC[C@H]1O[C@H](OCCCc2ccccc2)[C@H]2OC(C)(C)O[C@H]21 [X]	299 µM	< 1 µM	55 µM		
5.62 µM	CCCCCCCCCOCCCO[C@H]1O[C@H](COCCN2CCCC2)[C@@H]2OC(C)(C)O[C@H]12 [V, n-Nonyloxypropyl 2,3-0-(1-methlethylidene)-5-0-N'-ethylpyrrolidinyl-α-D-lyxofuranoside]	28 µM	< 1 µM	2.9 µM		
95.5 µM	CC1(C)O[C@@H]2[C@@H](OCCCc3ccccc3)O[C@H](CN3CCCC3)[C@@H]2O1 [XXV, Phenylpropyl 5-deoxy-2,3-0-(1-methylethylidene)-5-pyrrolidinyl-α-D-lyxofuranoside]	200 µM	12 µM	25 µM		
